Read-outs that look alike come from different tables or passages of the source.
Legend:
[1] = molecular target: T1, human norepinephrine transporter (Homo sapiens, UniProt P23975); assay: hNET Receptor Binding ([125I]-RTI-55 displacement, HEK-293 membranes); conditions: hNET, HEK-293 cell membranes, 50 pM [125I]-RTI-55, Ki from IC50 by Cheng-Prusoff; read-out: NET Ki
T1 construct: expressed in transfected cells; host or cells: HEK-293
Protocol: (§1) Cell pastes of HEK-293 cells transfected with a human norepinephrine transporter cDNA were prepared. The cell pastes were resuspended in 400 to 700 mL of Krebs-HEPES assay buffer (25 mM HEPES, 122 mM NaCl, 3 mM KCl, 1.2 mM MgSO4, 1.3 mM CaCl2, and 11 mM glucose, pH 7.4) with a Polytron homogenizer at setting 7 for 30 seconds. Aliquots of membranes (5 mg/mL protein) were stored in liquid nitrogen until used.
The binding assay was set up in Beckman deep-well polypropylene plates with a total volume of 250 μL containing: compound of one of the Examples (10^−5M to 10^−12M), cell membranes, and 50 pM [^125I]-RTI-55 (Perkin Elmer, NEX-272; specific activity 2200 Ci/mmol). The reaction was incubated by gentle agitation for 90 minutes at room temperature and was terminated by filtration through Whatman GF/C filter plates using a Brandel 96-well plate harvester. Scintillation fluid (100 μL) was added to each well, and bound [^125I]-RTI-55 was determined using a Wallac Trilux Beta Plate Counter. Test compounds were run in duplicate, and specific binding was defined as the difference between binding in the presence and absence of 10 μM desipramine.
(§2) Excel and GraphPad Prism software were used for data calculation and analysis. IC50 values were converted to Ki values using the Cheng-Prusoff equation.

[2] = molecular target: T2, human serotonin transporter (Homo sapiens, UniProt P31645); assay: hSERT Receptor Binding ([125I]-RTI-55 displacement, HEK-293 membranes); conditions: hSERT, HEK-293 cell membranes, 50 pM [125I]-RTI-55, Ki from IC50 by Cheng-Prusoff; read-out: SERT Ki
T2 construct: expressed in transfected cells; host or cells: HEK-293
T2 sequence (P31645 whole entry): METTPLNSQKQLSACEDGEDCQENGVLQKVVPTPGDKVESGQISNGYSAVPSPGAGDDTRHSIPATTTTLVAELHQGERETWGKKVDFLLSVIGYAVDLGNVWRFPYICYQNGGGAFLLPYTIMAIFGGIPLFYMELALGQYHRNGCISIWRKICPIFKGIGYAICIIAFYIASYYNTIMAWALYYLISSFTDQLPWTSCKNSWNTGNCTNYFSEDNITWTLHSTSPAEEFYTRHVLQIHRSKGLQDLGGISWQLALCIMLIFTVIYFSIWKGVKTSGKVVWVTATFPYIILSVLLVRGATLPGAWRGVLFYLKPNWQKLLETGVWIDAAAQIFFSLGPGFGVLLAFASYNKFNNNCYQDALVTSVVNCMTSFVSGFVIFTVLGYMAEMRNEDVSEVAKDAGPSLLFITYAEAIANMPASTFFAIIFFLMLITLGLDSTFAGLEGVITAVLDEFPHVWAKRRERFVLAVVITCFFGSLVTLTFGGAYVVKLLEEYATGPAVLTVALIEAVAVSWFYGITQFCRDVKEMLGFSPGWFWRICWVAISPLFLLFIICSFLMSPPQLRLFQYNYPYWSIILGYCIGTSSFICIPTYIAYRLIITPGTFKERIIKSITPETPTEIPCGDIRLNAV
Protocol: as §1, with “serotonin” for “norepinephrine”, “Setting” for “setting”, “(about 2.5” for “(5”
Assays were set up in FlashPlates pre-coated with 0.1 % PEI in a total volume of 250 μL containing: compound of one of the Examples (10^−5M to 10^−12M), cell membanes, and 50 pM [^125l]-RTI-55 (Perkin Elmer, NEX-272; specific activity 2200 Ci/mmol). The reaction was incubated and gently agitated for 90 minutes at room temperature, and terminated by removal of assay volume. Plates were covered, and bound [^125I]-RTI-55 was determined using a Wallac Trilux Beta Plate Counter. Test compounds were run in duplicate, and specific binding was defined as the difference between binding in the presence and absence of 10 μM citalopram.
as §2

[3] = system: capsaicin-induced mechanical allodynia in a rat; assay: rat model of capsaicin-induced mechanical allodynia; type: in vivo; conditions: sc, read-out: % Inhibition of Allodynia
Protocol: Compounds of the present invention may be assayed for their ability to alleviate capsaicin-induced mechanical allodynia in a rat (e.g., Sluka (2002) J of Neuroscience, 22(13): 5687-5693). For example, a rat model of capsaicin-induced mechanical allodynia was carried out as follows:
On day 0, male Sprague-Dawley rats (about 150 g each) in the dark cycle were placed in suspended wire-bottom cages and allowed to acclimate for 0.5 hour in a darkened, quiet room. The day 0 paw withdrawal threshold (PWT) was determined on the left hind paw by Von Frey hair assessment using the Dixon up and down method. After assessment, the plantar muscle of the right hind paw was injected with 100 μL capsaicin (0.25% (w/v) in 10% ethanol, 10% Tween 80, in sterile saline). On day 6 the PWT of the left hind paw (contralateral from injection site) was determined for each animal. Animals from the day 6 prereads with PWT ≦11.7 g were considered allodynic responders and were regrouped so that each cage had similar mean PWT values. On day 7, responders were dosed subcutaneously with 10 mg compound/kg body weight, or with vehicle alone. The vehicle was phosphate buffered saline containing 2% Cremophor® EL (BASF Corp., Florham Park, N.J.). The contralateral PWT values were determined at 1 hour after the single dose, with the investigator blinded to the dosing scheme.
For each animal, the day 6 PWT value was subtracted from the 1 hour PWT value to give a delta PWT value that represents the change in PWT due to the 1 hour drug treatment. In addition, the day 6 PWT was subtracted from the day 0 PWT to give the baseline window of allodynia present in each animal. To determine % inhibition of allodynia of each animal normalized for vehicle controls, the following formula was used: % Inhibition of Allodynia =100× [(Delta PWT(drug)—mean Delta PWT(vehicle))/(Baseline—mean Delta PWT(vehicle))].
The mean percent inhibition of allodynia values (for eight animals assayed for each compound) +/− the standard error of the mean (SEM) are shown in Table 2.

[4] = male Sprague-Dawley rats, 10 mg/kg subcutaneously, PWT 1 hour after single dose, mean +/- SEM of eight animals, normalized for vehicle

T1 sequence (P23975 whole entry): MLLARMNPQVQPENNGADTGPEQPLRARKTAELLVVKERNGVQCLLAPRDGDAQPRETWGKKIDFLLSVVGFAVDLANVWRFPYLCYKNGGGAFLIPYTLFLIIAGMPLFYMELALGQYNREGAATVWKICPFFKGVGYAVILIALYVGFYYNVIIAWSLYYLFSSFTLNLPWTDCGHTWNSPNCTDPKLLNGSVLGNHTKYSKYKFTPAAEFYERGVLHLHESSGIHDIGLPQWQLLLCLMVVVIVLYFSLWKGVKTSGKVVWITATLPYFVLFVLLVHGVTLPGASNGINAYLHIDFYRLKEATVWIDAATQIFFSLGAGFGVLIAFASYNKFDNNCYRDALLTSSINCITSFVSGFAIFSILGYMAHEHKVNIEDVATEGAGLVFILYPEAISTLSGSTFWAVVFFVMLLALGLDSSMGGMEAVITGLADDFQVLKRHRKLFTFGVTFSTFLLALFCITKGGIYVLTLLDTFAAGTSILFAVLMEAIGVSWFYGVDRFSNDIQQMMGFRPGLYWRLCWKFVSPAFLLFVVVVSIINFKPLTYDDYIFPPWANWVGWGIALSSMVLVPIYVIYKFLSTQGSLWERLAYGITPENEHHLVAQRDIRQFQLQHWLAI

Compound	Ki [1]	Ki [2]	inhibition in vivo at 10 mg/kg [3, 4]	inhibition in vivo at 10 mg/kg ([3]; 1 h)
CCOc1ncccc1OC[C@H]1CNCC[C@@H]1c1ccccc1 (single isomer, unassigned) [Example 1]	3.83 nM	24.3 nM	82.3%	–
CCOc1ncccc1OC[C@H]1CNCC[C@@H]1c1ccccc1 [Example 2, (3R,4S)-2-Ethoxy-3-(4-phenyl-piperidin-3-ylmethoxy)-pyridine]	3290 nM	6.51 nM	1.4%	–
COc1ncccc1OC[C@@H]1CNCC[C@H]1c1ccccc1 [Example 7, (3S,4R)-2-Methoxy-3-(4-phenyl-piperidin-3-ylmethoxy)-pyridine]	3.34 nM	17.7 nM	67.3%	–
CCCOc1ncccc1OC[C@@H]1CNCC[C@H]1c1ccccc1 [Example 9, (3S,4R)-3-(4-Phenyl-piperidin-3-ylmethoxy)-2-propoxy-pyridine]	3.04 nM	17.5 nM	29.5%	–
COCCOc1ncccc1OC[C@@H]1CNCC[C@H]1c1ccccc1 [Example 11, (3S,4R)-2-(2-Methoxy-ethoxy)-3-(4-phenyl-piperidin-3-ylmethoxy)-pyridine]	4.57 nM	188 nM	77.3%	–
CC(C)Oc1ncccc1OC[C@@H]1CNCC[C@H]1c1ccccc1 [Example 12, (3S,4R)-2-lsopropoxy-3-(4-phenyl-piperidin-3-ylmethoxy)-pyridine]	4.18 nM	40.6 nM	66.4%	–
COCCCOc1ncccc1OC[C@@H]1CNCC[C@H]1c1ccccc1 [Example 14, (3S,4R)-2-(3-Methoxy-propoxy)-3-(4-phenyl-piperidin-3-ylmethoxy)-pyridine]	12.1 nM	164 nM	22.7%	–
CCCc1ncccc1OC[C@@H]1CNCC[C@H]1c1ccccc1 [Example 17, (3S,4R)-3-(4-Phenyl-piperidin-3-ylmethoxy)-2-propyl-pyridine]	13.2 nM	21.9 nM	2.6%	–
c1ccc([C@@H]2CCNC[C@H]2COc2ccnc3ccsc23)cc1 [Example 35, (3S,4R)-7-(4-Phenyl-piperidin-3-ylmethoxy)-thieno[3,2-b]pyridine]	14.6 nM	8.4 nM	–	5.5%
NC(=O)c1ccc(OC[C@@H]2CNCC[C@H]2c2ccccc2)cc1 [Example 38, (3S,4R)-4-(4-Phenyl-piperidin-3-ylmethoxy)-benzamide]	12.1 nM	174 nM	0.2%	–
COc1cccnc1OC[C@@H]1CNCC[C@H]1c1ccccc1 [Example 44, (3S,4R)-3-Methoxy-2-(4-phenyl-piperidin-3-ylmethoxy)-pyridine]	33.3 nM	158 nM	–	–
COc1nccnc1OC[C@@H]1CNCC[C@H]1c1ccccc1 [Example 45, (3S,4R)-2-Methoxy-3-(4-phenyl-piperidin-3-ylmethoxy)-pyrazine]	36.5 nM	71.8 nM	–	–
Cc1cccc(OC[C@@H]2CNCC[C@H]2c2ccccc2)n1 [Example 46, (−)-(3S,4R)-2-Methyl-6-(4-phenyl-piperidin-3-ylmethoxy)-pyridine]	233 nM	156 nM	–	–

From patent US20070142389A1, “PIPERIDINE DERIVATIVES” (PFIZER INC., priority 2005, published 2007)
